Paper PMC11923636, “Synthesis, Pharmacological Evaluation, and Molecular Modeling of Phthalimide Derivatives as Monoamine Oxidase and Cholinesterase Dual Inhibitors” (ACS Omega, 2025)
Values joined by “and” are separate entries in the source; they are usually repeats but may differ in a detail not shown here. Equal entries are not always repeated. Marks after values point to notes of the source that are not given here.

Experiments:
human MAO-B = molecular target: T1, human MAO-B (Homo sapiens, UniProt P27338); experiment: Human MAO isoform inhibition assay (fluorometric), MAO-B; format: biochemical; conditions: for IC50: mean ± SEM, n = 3, read-out: IC50 (μM) ± SEM hMAO-B; for SI (IC50 hMAO-A/IC50 hMAO-B): selectivity index
T1 sequence (P27338 1-520): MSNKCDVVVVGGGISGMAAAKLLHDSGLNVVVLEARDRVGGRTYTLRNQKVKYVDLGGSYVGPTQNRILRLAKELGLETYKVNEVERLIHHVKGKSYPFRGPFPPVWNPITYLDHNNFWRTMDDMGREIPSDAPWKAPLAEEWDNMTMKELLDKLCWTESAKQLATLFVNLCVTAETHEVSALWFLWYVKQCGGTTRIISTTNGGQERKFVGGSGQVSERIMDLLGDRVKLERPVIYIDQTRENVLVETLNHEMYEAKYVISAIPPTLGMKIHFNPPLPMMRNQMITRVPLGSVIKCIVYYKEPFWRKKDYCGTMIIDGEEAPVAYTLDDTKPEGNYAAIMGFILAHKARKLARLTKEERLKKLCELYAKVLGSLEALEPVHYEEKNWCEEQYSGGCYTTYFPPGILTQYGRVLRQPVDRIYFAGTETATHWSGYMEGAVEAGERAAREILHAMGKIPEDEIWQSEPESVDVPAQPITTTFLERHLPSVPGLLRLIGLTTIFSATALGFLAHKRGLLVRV
Procedure: (§1) The human MAO isoform assay was also carried out using a fluorescence-based assay protocol according to the reported literature.
(§2) Inhibitory activity of the synthesized compounds against MAO isoforms, specifically human MAO-A and MAO-B, was determined by using benzylamine and tyramine substrates in the dark (protected from light) in a 96-well plate by an already reported fluorometric method.[31],[32]

[1] = molecular target: T2, equine serum lyophilized BChE (Equus caballus, UniProt P81908); experiment: biochemical; conditions: mean ± SEM, n = 3; read-out: IC50 (μM) ± SEM eqBChE
T2 construct: Equine Serum lyophilized BChE; from tissue; host or cells: equine serum
Procedure: (§3) The synthesized compounds were evaluated for their inhibition potential against cholinesterases (Electrophorus electricus AChE and equine serum lyophilized BChE).
(§4) The cholinesterase in vitro bioassay for the synthesized compounds was performed using already reported protocols.[29],[30] Ellman’s assay method was used to study the inhibition of Electrophorus electricus AChE and Equine Serum lyophilized BChE. Stock solutions of synthesized compounds were prepared in potassium phosphate buffer (pH 8.0). A sufficient amount of 5,5-dithio-bis-2-nitrobenzoic acid (DTNB, Ellman’s reagent), a stock solution of synthesized compounds, and 0.03 U/ml of the enzyme (AChE or BChE) were added to a 96-well plate and incubated at 30 °C for 10 min. Subsequently, 1 mM ATCI or BTCI was added, and the reaction mixture was incubated for 15 min. […] Sample concentration was plotted against inhibitory activity to obtain IC50 values.

[2] = molecular target: Electrophorus electricus AChE (Electrophorus electricus, UniProt O42275); experiment: biochemical; format: biochemical; conditions: for IC50: mean ± SEM, n = 3, read-out: IC50 (μM) ± SEM eeAChE; for SI = IC50 of BChE/IC50 of AChE: selectivity index
Procedure: as §3, §4

human MAO-A = molecular target: T3, human MAO-A (Homo sapiens, UniProt P21397); experiment: Human MAO isoform inhibition assay (fluorometric), MAO-A; format: biochemical; conditions: mean ± SEM, n = 3; read-out: IC50 (μM) ± SEM hMAO-A
T3 sequence (P21397 1-527): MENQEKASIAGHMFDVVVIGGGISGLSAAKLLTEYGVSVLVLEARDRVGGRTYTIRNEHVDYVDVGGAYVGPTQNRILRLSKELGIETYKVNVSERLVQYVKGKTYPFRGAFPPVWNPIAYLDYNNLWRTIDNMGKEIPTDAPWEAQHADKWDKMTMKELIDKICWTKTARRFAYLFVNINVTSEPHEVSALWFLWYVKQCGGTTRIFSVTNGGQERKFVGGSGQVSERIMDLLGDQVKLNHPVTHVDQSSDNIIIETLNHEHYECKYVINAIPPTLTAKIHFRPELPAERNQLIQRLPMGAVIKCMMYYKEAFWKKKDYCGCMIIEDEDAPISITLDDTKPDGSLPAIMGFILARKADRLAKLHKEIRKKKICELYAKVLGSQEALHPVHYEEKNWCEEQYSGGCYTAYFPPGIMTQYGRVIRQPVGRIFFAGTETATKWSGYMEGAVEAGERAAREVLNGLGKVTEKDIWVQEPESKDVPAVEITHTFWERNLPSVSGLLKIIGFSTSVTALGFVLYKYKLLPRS
Procedure: as §1, §2

AChE = conditions: cited from earlier work
mice brain MAO-B = molecular target: T4, mice brain MAO-B (Mus musculus, UniProt Q8BW75); experiment: Ex vivo MAO-B inhibition reversibility time course; format: in vivo, ICR mice; conditions: single ip dose
T4 construct: from tissue; host or cells: ICR mouse brain homogenate pellet
T4 sequence (Q8BW75 1-520): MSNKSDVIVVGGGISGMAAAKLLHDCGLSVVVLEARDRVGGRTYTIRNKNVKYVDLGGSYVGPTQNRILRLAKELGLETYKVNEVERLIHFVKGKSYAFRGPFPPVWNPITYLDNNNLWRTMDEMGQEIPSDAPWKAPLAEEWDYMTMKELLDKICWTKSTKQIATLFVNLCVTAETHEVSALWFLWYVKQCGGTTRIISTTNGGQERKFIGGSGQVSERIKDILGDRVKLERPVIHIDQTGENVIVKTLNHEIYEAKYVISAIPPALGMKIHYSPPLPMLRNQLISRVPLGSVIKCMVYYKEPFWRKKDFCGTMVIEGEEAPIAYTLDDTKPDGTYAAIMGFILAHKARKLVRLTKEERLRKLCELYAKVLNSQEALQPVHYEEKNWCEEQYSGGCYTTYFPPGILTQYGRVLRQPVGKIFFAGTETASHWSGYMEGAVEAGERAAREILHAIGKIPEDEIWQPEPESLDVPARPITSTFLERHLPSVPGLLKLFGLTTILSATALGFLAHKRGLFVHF
Procedure: After the experiments, the animals were euthanized following Animal Euthanasia (AVMA Guidelines) guidelines to ensure humane treatment. Five groups of ICR mice were administered test samples by intraperitoneal injection, and the intact brains were excised and were then frozen for almost 1 h (−20 °C). Brain tissue ([…]) was suspended in sucrose (0.3 M) using a homogenizer (Ultra-Turrax T8; at 60 Hz for almost 70 s) and then subjected to centrifugation for 10 min at 1500 rpm (4 °C). 200 μL of supernatant was collected and centrifuged for 20 min at 15,000 rpm and 4 °C. Subsequently, the formed pellet was resuspended in KHPO4 solution (pH 7.2, 600 μL) and then subjected to 20 min centrifugation at 15,000 rpm and 4 °C. This process was repeated three times. Enzyme activity was determined using an Assay Kit (monoamine oxidase). […] The mice were then sacrificed at intervals ranging from 0.5 to 48 h.[34]

[3] = test system: SH-SY5Y neuroblastoma cells; format: cell-based; conditions: MTT; for cytotoxicity on SH-SY5Y cells: 10, 20, 30, and 50 μM; for neurotoxicity on SH-SY5Y cells: higher concentrations (100 μM)
Procedure: To determine the biological safety of the synthesized compounds, we performed a cytotoxicity study using a human SH-SY5Y neuroblastoma cell line.
SH-SY5Y cells were cultured in 96-well plates (1 × 10^5 cells/well) in a medium containing fetal bovine serum (FBS), penicillin (100 U/ml), and streptomycin ([…]) at 37 °C and 5% CO2. […] Subsequently, synthesized compounds were added to cells, followed by the addition of 20 μL of MTT reagent (10 mg/mL) at the specified time. Plates were then incubated at 37 °C and 5% CO2, and purple color precipitate formation was observed by a microscope. Lastly, DMSO ([…]) was added to solubilize precipitates, and the plates were read at 570 nm to determine the cell viability. Results are expressed as percentage growth of cells, in which their viability is compared to control cells in the presence or absence of synthesized compounds and a standard. The following formula was utilized for the measurement of the % cell viability. [drawing 1]

in vitro = conditions: for Papp at 20 h: PAMPA, pH 7.4; for prediction of CNS penetration: class from PAMPA-BBB Pe
Procedure: A fundamental requirement for the effectiveness of anti-AD drugs is their capability to traverse the BBB (blood–brain barrier). […]
Briefly, synthesized compounds were first dissolved in DMSO (10 mM) that was further diluted by the addition of phosphate buffer ([…]) having a pH of 7.4. PBL dissolved in dodecane was used for coating the membranes of the donor plates. Then, the test compound (0.2 mL) was added to the plate, followed by PBS (0.2 mL; pH = 7.4) to the acceptor plate, which was further placed under the donor plate in order to form a “sandwich”. […] A UV plate reader was employed for the measurements of the drug concentration in donor, acceptor, and reference wells. The permeability (Pe) of the compounds was measured by using the following formula. [drawing 2]

BChE = conditions: read-out: BChE enzyme inhibition dissociation constant (Ki value); cited from earlier work

T2 sequence (P81908 whole entry): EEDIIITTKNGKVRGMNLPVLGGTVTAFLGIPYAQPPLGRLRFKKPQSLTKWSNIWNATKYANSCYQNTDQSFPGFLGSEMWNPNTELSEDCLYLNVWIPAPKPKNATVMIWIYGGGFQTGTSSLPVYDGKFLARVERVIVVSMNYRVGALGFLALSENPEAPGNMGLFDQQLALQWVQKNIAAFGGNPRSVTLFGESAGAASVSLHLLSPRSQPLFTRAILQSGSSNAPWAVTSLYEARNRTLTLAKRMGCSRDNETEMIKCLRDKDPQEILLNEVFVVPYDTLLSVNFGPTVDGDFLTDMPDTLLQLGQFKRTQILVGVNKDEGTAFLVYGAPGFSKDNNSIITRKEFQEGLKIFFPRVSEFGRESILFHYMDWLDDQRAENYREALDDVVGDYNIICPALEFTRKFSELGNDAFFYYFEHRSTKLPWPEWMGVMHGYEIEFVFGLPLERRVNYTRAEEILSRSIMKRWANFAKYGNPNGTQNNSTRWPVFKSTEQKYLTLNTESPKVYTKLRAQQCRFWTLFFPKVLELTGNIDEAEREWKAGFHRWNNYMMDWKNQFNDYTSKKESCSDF
Electrophorus electricus AChE, sequence (O42275 24-633): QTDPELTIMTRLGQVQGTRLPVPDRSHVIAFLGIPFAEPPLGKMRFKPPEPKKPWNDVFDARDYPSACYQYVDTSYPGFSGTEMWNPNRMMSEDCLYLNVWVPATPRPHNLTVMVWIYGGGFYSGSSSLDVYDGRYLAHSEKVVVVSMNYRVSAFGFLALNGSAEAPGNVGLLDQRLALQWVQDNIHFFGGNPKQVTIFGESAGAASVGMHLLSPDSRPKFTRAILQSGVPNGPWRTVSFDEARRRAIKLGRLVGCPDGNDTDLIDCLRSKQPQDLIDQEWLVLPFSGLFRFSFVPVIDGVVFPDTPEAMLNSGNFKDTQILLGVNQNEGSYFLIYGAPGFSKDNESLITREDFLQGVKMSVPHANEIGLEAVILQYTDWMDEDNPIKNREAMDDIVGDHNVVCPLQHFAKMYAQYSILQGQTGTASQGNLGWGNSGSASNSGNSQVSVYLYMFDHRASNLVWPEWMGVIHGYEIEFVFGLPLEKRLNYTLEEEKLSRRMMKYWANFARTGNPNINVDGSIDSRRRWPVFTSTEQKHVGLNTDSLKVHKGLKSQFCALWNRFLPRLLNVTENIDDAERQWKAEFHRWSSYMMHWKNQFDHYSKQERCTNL

Compound	IC50 (human MAO-B)	SI (IC50 hMAO-A/IC50 hMAO-B) (human MAO-B)	IC50 [1]	IC50 [2]	SI = IC50 of BChE/IC50 of AChE [2]	IC50 (human MAO-A)	IC50 (AChE; reported in the literature, ref number not given)	activity of MAO-B recovered (mice brain MAO-B; after 5 h)	activity of MAO-B recovered (mice brain MAO-B; after 24 h)	cytotoxicity on SH-SY5Y cells [3]	neurotoxicity on SH-SY5Y cells [3]	Papp at 20 h (in vitro)	prediction of CNS penetration (in vitro)	Ki (BChE)	Ki (AChE; read-out: AChE enzyme inhibition dissociation constant (Ki value))
Cc1cc(C)c(-c2ccc(CN3C(=O)c4ccccc4C3=O)cc2)c(C)c1 [3i]	0.71 ± 0.04 µM	71	49.2 ± 1.11 µM	0.88 ± 0.05 µM	56	50.9 ± 1.42 µM									
COc1cc(CN2C(=O)c3cc(Cl)c(Cl)cc3C2=O)cc(OC)c1OC [II]							0.0135 µM								
N#Cc1ccc(-c2ccc(CN3C(=O)c4ccccc4C3=O)cc2)cc1 [3d]	0.64 ± 0.03 µM	45	33.5 ± 1.09 µM	9.21 ± 0.14 µM	4	28.8 ± 1.44 µM									
O=C1c2ccccc2C(=O)N1Cc1ccc(-c2cccc3ccccc23)cc1 [3j]	0.13 ± 0.01 µM	53	18.9 ± 1.08 µM	0.61 ± 0.03 µM	31	6.98 ± 0.2 µM									
O=C1c2ccccc2C(=O)N1Cc1ccc(-c2cccs2)cc1 [3l]	0.14 ± 0.01 µM	59	55.3 ± 1.31 µM	0.91 ± 0.02 µM	61	8.29 ± 0.33 µM									
O=C1c2ccccc2C(=O)N1Cc1ccc(-c2ccc(C(F)(F)F)cc2)cc1 [3e]	0.11 ± 0.01 µM	150	6.29 ± 0.17 µM	0.24 ± 0.01 µM	26	16.5 ± 0.66 µM		50%	~95%	No cytotoxicity	negligible neurotoxicity	18.7 ± 1.12 ×10⁻⁶ cm/s	CNS+ ^b (“CNS+” (prediction of high BBB permeation); Pe (10^–6 cm/s) > 4.39)		
Cc1ccc(-c2ccc(CN3C(=O)c4ccccc4C3=O)cc2)cc1 [3a]	1.04 ± 0.03 µM	18	49.1 ± 1.36 µM	3.16 ± 0.09 µM	15	19.3 ± 1.28 µM									
O=C1c2ccccc2C(=O)N1CCc1cc2ccccc2[nH]1 [IV]														100 µM	
O=C1c2ccccc2C(=O)N1Cc1ccc(-c2ccc([N+](=O)[O-])cc2)cc1 [3c]	0.24 ± 0.01 µM	80	49.1 ± 1.39 µM	0.94 ± 0.12 µM	52	19.4 ± 1.21 µM									
Cc1cc(C)cc(-c2ccc(CN3C(=O)c4ccccc4C3=O)cc2)c1 [3h]	0.64 ± 0.02 µM	117	29.6 ± 1.16 µM	0.73 ± 0.04 µM	40	75.1 ± 1.25 µM									
O=C1c2ccccc2C(=O)N1C/C=C/CN1CCN(Cc2ccccc2)CC1 [III]															193 µM
Cc1ccc2cc(-c3ccc(CN4C(=O)c5ccccc5C4=O)cc3)ccc2n1 [3m]	0.15 ± 0.01 µM	156	31.1 ± 0.79 µM	0.89 ± 0.1 µM	35	23.5 ± 1.12 µM									
O=C1c2ccccc2C(=O)N1Cc1ccc(-c2cccc(C(F)(F)F)c2)cc1 [3f]	0.09 µM and 0.091 µM	124	17 ± 1.04 µM	4.48 ± 0.11 µM	4	11.3 ± 0.2 µM			~80%	No cytotoxicity	negligible neurotoxicity	18.3 ± 1.27 ×10⁻⁶ cm/s	CNS+ (“CNS+” (prediction of high BBB permeation); Pe (10^–6 cm/s) > 4.39)		
C[C@H](NCc1ccc(OCc2cccc(F)c2)cc1)C(N)=O [safinamide, reference compound]												7.56 ± 0.02 ×10⁻⁶ cm/s	CNS+ (“CNS+” (prediction of high BBB permeation); Pe (10^–6 cm/s) > 4.39)		
O=C1c2ccccc2C(=O)N1Cc1ccc(-c2ccc3c(c2)OCO3)cc1 [3k]	0.66 ± 0.03 µM	61	80.7 ± 1.54 µM	21.1 ± 0.47 µM	3.8 and 4	40.4 ± 1.31 µM									
N#CCc1ccc(-c2ccc(CN3C(=O)c4ccccc4C3=O)cc2)cc1 [3g]	0.78 ± 0.04 µM	7	99.1 ± 1.21 µM	13.43 ± 0.08 µM	7	5.44 ± 0.16 µM									
